These results are taken from article PMC4370687, “Functional Characterization of the 1,5-Benzodiazepine Clobazam and Its Major Active Metabolite N-Desmethylclobazam at Human GABAA Receptors Expressed in Xenopus laevis Oocytes” (PLoS ONE, 2015).

Series [1] deals with T1, human α1β2γ2S GABAAR (Homo sapiens, UniProt P14867+P18507+P47870). Nature of the series: cell-based.
Description: (§5) Electrophysiological recordings were performed using the TEVC technique on Xenopus oocytes expressing various GABAAR combinations using a protocol adapted from previous studies [44, 45]. […] Cells were impaled with agar-plugged 0.5–1 MΩ electrodes containing 3 M KCl and voltage clamped at −70 mV by a Gene Clamp 500B amplifier (Axon Instruments, Union City, CA, USA) and recorded with pClamp 10 (Windows version, Molecular Devices, LLC, Sunnyvale, CA, USA). The oocytes were continuously perfused with Ringer buffer, and the test compounds were applied in the perfusate. Experiments were performed at room temperature and each data point represents the mean ± S.E.M. value of recordings performed on at least two oocytes from at least two different batches of oocytes. The recorded baseline-to-peak current amplitudes were analyzed using Clampfit 10.1 (Axon Instruments, Union City, CA, USA).
A further series has as its system rat α3β3γ2L GABAAR. The conditions noted are these: patch clamp, cited from earlier work; for EC50: 3 μM GABA (EC10–EC20), HEK-293T cells; for Imax: % of the responses evoked by GABA EC10–EC20, HEK-293T cells.
For a further series, the target named is T2, human α2β2γ2S GABAAR (Homo sapiens, UniProt P18507+P47869+P47870).
T2 construct: expressed in transfected cells; host or cells: Xenopus laevis oocytes (cRNA injection, α:β2:γ2S 1:1:1; 1:1:5 in the zolpidem comparison)
T2 sequence (P47869 29-451, one chain of several): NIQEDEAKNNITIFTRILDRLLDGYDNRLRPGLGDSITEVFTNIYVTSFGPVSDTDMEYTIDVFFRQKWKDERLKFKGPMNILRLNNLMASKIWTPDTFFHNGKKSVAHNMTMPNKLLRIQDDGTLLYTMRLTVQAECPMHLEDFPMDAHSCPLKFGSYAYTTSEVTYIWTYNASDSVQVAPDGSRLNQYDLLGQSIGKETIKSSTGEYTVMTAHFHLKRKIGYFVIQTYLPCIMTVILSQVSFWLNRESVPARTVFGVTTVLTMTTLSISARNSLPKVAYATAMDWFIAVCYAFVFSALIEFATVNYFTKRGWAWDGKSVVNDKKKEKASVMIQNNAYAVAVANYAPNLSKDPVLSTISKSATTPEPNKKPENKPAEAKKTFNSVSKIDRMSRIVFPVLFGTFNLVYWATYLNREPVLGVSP
T2 sequence (P18507 40-467 isoform P18507-1 limits assumed, one chain of several): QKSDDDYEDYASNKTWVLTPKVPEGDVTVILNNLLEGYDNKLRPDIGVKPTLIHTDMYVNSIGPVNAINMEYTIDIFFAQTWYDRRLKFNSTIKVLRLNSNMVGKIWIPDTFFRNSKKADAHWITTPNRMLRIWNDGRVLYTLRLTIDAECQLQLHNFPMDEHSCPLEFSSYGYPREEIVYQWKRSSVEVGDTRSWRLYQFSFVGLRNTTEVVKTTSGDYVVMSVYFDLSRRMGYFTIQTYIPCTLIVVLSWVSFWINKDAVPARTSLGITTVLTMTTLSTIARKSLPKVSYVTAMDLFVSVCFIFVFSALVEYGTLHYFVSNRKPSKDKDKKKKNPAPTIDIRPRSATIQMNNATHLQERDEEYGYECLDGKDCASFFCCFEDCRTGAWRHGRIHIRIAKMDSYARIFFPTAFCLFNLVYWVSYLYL
In words: Potentiation of GABA EC20-evoked currents, TEVC in Xenopus oocytes. Type of series: cell-based. The conditions noted are these: for Imax ± S.E.M.: % of the response evoked by GABA EC20 (EC20 response = 100%). As for the experimental part: (§1) The cDNAs encoding the human GABAAR subunits were linearized with DraIII (α1, α2, α3, α5 and α6), SmaI (β2 and γ2S) or StuI (δ) and used as templates for in vitro cRNA synthesis using the T7 mMESSAGE mMACHINE High Yield Capped RNA Transcription Kit (Life Technologies Corporation, Carlsbad, CA, USA). Except where otherwise indicated, Xenopus oocytes were injected with 36.8 nL cRNA solution encoding for α1β2γ2S, α2β2γ2S, α3β2γ2S and α5β2γ2S GABAARs in a 1:1:1 α:β2:γ2S ratio (2.7 ng/μL of each subunit), with 46 nL cRNA solution encoding for the α6β2δ GABAAR in a 10:1:10 α6:β2:δ ratio (1:0.1:1 μg/μL), with 18 nL cRNA solution encoding for the α1β2 GABAAR in a 1:1 α1:β2 ratio (0.6:0.6 μg/μL), or with 46 nL cRNA encoding for α6β2 (α6:β2 ratio: 1:0.1 μg/μL). Following injection, the oocytes were incubated at 18°C in modified Barth’s solution [88 mM NaCl, 1 mM KCl, 15 mM HEPES (pH 7.5), 2.4 mM NaHCO3, 0.41 mM CaCl2, 0.82 mM MgSO4, 0.3 mM Ca(NO3)2, 100 U/mL penicillin and 100 μg/mL streptomycin]. Electrophysiological recordings were performed 3 to 6 days after injection.
(§2) Electrophysiological recordings were performed using the TEVC technique on Xenopus oocytes expressing various GABAAR combinations using a protocol adapted from previous studies. […] Cells were impaled with agar-plugged 0.5–1 MΩ electrodes containing 3 M KCl and voltage clamped at −70 mV by a Gene Clamp 500B amplifier (Axon Instruments, Union City, CA, USA) and recorded with pClamp 10 (Windows version, Molecular Devices, LLC, Sunnyvale, CA, USA). The oocytes were continuously perfused with Ringer buffer, and the test compounds were applied in the perfusate. Experiments were performed at room temperature and each data point represents the mean ± S.E.M. value of recordings performed on at least two oocytes from at least two different batches of oocytes. The recorded baseline-to-peak current amplitudes were analyzed using Clampfit 10.1 (Axon Instruments, Union City, CA, USA). […] The presence of δ in cell surface-expressed receptors in α6β2δ-injected oocytes was confirmed on a routinely basis using the δ-GABAAR selective PAM DS2 (1 μM). Furthermore, taking advantage of the differential sensitivity of αβ and αβδ receptors to Zn^2+ as antagonist, 1 μM ZnCl2 was used to verify that a homogenous population of ternary α6β2δ receptor complexes was expressed in these oocytes.
(§3) Two to five minutes of wash time between each application were permitted to overcome receptor desensitization. […] Concentration-response curves for the benzodiazepines were fitted using Equation 1.
To address this aspect, we compared the maximum responses mediated by saturating concentrations (3 μM) of clobazam, N-desmethylclobazam, and clonazepam at the GABAARs with the maximal responses mediated by a saturating concentration of diazepam, a 1,4-benzodiazepine often referred to as a “full benzodiazepine agonist”. […] We also compared the maximum degree of potentiation mediated by clobazam at the α2β2γ2S GABAAR with the maximal responses induced by a saturating concentration of zolpidem. […] In this experiment cRNA for α2β2γ2S was injected in a ratio of 1:1:5 (α2:β2:γ2S) to facilitate the expression of a homogenous population of γ2S-containing complexes.

The target of series [2] is T1, human α1β2γ2S GABAAR. The following applies: for Imax ± S.E.M.: % of the response evoked by GABA EC20 (EC20 response = 100%).
Description: as §5
For series [3] the following is noted: humans; cited from earlier work.
In series [4] the test system is human α1,2,3,5β2γ2S GABAARs. The following applies: cited from earlier work.
The next series addresses T3, human α5β2γ2S GABAAR (Homo sapiens, UniProt P18507+P31644+P47870).
T3 construct: expressed in transfected cells; host or cells: Xenopus laevis oocytes (cRNA injection, 1:1:1)
Nature of the series: Potentiation of GABA EC20-evoked currents, TEVC in Xenopus oocytes. Type of series: cell-based. The conditions noted are these: for Imax ± S.E.M.: % of the response evoked by GABA EC20 (EC20 response = 100%). As for the experimental part: as §1, §2, §3

The next series addresses T4, human α3β2γ2S GABAAR (Homo sapiens, UniProt P18507+P34903+P47870).
T4 construct: expressed in transfected cells; host or cells: Xenopus laevis oocytes (cRNA injection, 1:1:1)
The series is described as above. Type of series: cell-based. The following applies: for Imax ± S.E.M.: % of the response evoked by GABA EC20 (EC20 response = 100%). As for the experimental part:
as §1, §2, §3

A further series addresses T5, human α6β2 GABAAR (Homo sapiens, UniProt P47870+Q16445).
T5 construct: expressed in transfected cells; host or cells: Xenopus laevis oocytes (cRNA injection)
The series is described as above. Type of series: cell-based. As for the experimental part: as §1, §2, §3

For a further series, the target named is T6, human α6β2δ GABAAR (Homo sapiens, UniProt P47870+Q16445).
T6 construct: expressed in transfected cells; host or cells: Xenopus laevis oocytes (cRNA injection, α6:β2:δ 10:1:10)
T6 sequence (Q16445 20-453, one chain of several): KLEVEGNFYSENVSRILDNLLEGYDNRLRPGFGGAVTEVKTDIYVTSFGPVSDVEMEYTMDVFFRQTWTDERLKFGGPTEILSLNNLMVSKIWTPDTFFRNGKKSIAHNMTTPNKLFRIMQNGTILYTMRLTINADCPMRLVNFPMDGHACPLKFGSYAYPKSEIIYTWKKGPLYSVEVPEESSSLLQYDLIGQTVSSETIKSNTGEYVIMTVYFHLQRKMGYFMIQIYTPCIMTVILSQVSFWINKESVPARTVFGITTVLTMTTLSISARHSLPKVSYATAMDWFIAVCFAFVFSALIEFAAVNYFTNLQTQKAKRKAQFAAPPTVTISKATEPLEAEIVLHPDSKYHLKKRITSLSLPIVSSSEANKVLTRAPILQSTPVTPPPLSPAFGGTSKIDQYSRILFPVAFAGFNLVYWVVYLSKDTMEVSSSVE
T6 sequence (O14764 25-452 partner, one chain of several): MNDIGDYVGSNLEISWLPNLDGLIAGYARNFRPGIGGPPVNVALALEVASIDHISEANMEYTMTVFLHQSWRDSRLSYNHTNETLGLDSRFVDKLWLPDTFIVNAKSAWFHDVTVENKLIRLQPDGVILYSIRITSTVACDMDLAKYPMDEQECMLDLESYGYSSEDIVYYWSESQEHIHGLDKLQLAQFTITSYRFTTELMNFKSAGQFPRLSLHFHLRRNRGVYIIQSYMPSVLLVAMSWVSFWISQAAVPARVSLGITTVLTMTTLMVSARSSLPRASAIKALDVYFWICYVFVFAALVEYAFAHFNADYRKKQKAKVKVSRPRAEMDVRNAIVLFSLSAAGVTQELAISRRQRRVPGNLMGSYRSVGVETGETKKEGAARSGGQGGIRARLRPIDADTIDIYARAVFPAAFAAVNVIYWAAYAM
The series is described as above. Type of series: cell-based. The following applies: for EC50: co-applied with GABA EC20, N-desmethylclobazam value estimated, curve not saturated at 1 mM. As for the experimental part:
as §1, §2, §3

Series [5] has as its target T1, human α1β2γ2S GABAAR. Nature of the series: Zinc-mediated inhibition of GABA EC80-evoked currents, TEVC in Xenopus oocytes. Type of series: cell-based. Also noted: expressed in transfected cells; host or cells: Xenopus laevis oocytes (cRNA injection, α:β2:γ2S 1:1:1). The following applies: 100 μM Zn2+, 100 μM GABA (EC80), mean ± S.E.M. As for the experimental part:
as §1, with “Following injection, the oocytes were incubated at 18°C in modified Barth’s solution [88 mM NaCl, 1 mM KCl, 15 mM HEPES (pH 7.5), 2.4 mM NaHCO3, 0.41 mM CaCl2, 0.82 mM MgSO4, 0.3 mM Ca(NO3)2, 100 U/mL penicillin and 100 μg/mL streptomycin]. Electrophysiological recordings were performed 3 to 6 days after injection.” left out
(§4) Electrophysiological recordings were performed using the TEVC technique on Xenopus oocytes expressing various GABAAR combinations using a protocol adapted from previous studies. […] Cells were impaled with agar-plugged 0.5–1 MΩ electrodes containing 3 M KCl and voltage clamped at −70 mV by a Gene Clamp 500B amplifier (Axon Instruments, Union City, CA, USA) and recorded with pClamp 10 (Windows version, Molecular Devices, LLC, Sunnyvale, CA, USA). […] The recorded baseline-to-peak current amplitudes were analyzed using Clampfit 10.1 (Axon Instruments, Union City, CA, USA). […]

In a further series the target is T7, human α1β2 GABAAR (Homo sapiens, UniProt P14867+P47870).
T7 construct: expressed in transfected cells; host or cells: Xenopus laevis oocytes (cRNA injection, α1:β2 1:1)
T7 sequence (P14867 28-456): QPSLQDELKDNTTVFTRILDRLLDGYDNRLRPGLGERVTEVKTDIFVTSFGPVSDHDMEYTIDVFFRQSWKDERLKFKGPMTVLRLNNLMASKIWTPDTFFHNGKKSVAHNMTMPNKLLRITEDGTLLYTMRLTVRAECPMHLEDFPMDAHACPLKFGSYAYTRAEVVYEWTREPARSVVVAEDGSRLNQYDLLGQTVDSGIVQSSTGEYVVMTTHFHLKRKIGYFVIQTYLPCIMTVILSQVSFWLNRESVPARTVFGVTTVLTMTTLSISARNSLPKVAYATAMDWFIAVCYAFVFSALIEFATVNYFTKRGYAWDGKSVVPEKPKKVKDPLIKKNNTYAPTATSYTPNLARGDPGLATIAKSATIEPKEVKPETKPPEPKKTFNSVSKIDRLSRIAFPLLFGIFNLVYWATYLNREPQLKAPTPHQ
T7 sequence (P47870 26-474 isoform P47870-1 limits assumed): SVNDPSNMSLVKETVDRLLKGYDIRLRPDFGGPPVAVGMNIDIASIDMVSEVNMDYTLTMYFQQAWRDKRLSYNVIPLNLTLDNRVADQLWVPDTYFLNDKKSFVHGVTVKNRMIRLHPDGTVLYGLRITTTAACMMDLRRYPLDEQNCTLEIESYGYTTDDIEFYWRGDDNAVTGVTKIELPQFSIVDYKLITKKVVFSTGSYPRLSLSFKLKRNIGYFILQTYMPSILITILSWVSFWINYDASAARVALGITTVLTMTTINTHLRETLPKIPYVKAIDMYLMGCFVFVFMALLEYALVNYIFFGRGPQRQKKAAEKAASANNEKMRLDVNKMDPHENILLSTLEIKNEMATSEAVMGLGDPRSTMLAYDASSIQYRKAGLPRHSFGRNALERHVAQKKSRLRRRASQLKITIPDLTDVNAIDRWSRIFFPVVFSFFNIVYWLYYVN
The description is as above. Type of series: cell-based. The following applies: 100 μM Zn2+, 10 μM GABA (EC80), mean ± S.E.M. As for the experimental part:
as §1, with “Following injection, the oocytes were incubated at 18°C in modified Barth’s solution [88 mM NaCl, 1 mM KCl, 15 mM HEPES (pH 7.5), 2.4 mM NaHCO3, 0.41 mM CaCl2, 0.82 mM MgSO4, 0.3 mM Ca(NO3)2, 100 U/mL penicillin and 100 μg/mL streptomycin]. Electrophysiological recordings were performed 3 to 6 days after injection.” left out
as §4

Where [6] appears, read: 1 mM compound, in % of the GABA EC20 response, curve not saturated.

Molecules are shown by their SMILES. Marks after values point to notes of the source that are not given here.

T4 sequence (P34903 29-492, one chain of several): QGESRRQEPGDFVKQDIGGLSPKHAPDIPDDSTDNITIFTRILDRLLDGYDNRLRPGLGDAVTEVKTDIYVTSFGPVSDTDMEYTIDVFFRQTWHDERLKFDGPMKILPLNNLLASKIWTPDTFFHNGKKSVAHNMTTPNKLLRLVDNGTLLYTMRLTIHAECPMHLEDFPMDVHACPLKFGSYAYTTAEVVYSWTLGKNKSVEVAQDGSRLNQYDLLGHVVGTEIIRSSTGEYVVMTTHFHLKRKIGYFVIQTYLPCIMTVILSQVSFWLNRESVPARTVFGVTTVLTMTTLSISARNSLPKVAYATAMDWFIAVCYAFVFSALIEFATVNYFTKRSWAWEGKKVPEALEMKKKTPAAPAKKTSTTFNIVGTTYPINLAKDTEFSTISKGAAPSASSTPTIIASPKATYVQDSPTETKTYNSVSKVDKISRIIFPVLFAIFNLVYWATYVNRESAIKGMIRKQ
T4 sequence (P18507 40-467 isoform P18507-1 limits assumed, one chain of several): as the sequence (P18507 40-467 isoform P18507-1 limits assumed, one chain of several) above
T3 sequence (P31644 32-462, one chain of several): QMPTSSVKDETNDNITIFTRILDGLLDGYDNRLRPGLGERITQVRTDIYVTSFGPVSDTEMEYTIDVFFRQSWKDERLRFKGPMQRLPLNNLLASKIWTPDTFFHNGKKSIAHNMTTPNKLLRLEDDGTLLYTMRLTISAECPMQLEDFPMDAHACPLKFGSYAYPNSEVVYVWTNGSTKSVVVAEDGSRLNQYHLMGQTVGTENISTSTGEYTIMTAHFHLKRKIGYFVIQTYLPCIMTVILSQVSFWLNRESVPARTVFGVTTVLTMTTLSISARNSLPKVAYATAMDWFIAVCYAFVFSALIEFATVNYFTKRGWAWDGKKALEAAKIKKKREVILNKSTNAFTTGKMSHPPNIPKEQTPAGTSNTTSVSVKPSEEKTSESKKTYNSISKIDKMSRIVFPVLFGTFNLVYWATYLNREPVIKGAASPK
T3 sequence (P18507 40-467 isoform P18507-1 limits assumed, one chain of several): as the sequence (P18507 40-467 isoform P18507-1 limits assumed, one chain of several) above
T1 sequence (P18507 40-467 isoform P18507-1 limits assumed, one chain of several): as above
T5 sequence (Q16445 20-453, one chain of several): as the sequence (Q16445 20-453, one chain of several) above

Turning to `O=C1CC(=O)N(c2ccccc2)c2cc(Cl)ccc2N1` [N-desmethylclobazam], the concentration for a half-maximal effect (EC50) at human α1β2γ2S GABAAR [1] was 151 nM; with rat α3β3γ2L GABAAR it was 550 nM; at human α2β2γ2S GABAAR, 138 nM; at human α5β2γ2S GABAAR it was 98 nM; at human α3β2γ2S GABAAR, 282 nM; on human α6β2 GABAAR, approximately 300000 nM. For the same compound, the EC50 at human α6β2δ GABAAR (EC50, PAM) was approximately 300000 nM. Moreover, the Imax in the series with rat α3β3γ2L GABAAR is listed as 270%. In addition, the “Imax ± S.E.M.” value at human α2β2γ2S GABAAR was 270 ± 20%; at human α1β2γ2S GABAAR [2] it was 203 ± 8.5%; at human α5β2γ2S GABAAR, 233 (248 and 217) ^b %; at human α3β2γ2S GABAAR it was 270 ± 27%. In addition, the plasma half-life in [3] is given as 79 h. The “fold higher binding affinity at α2β2γ2S compared to α1β2γ2S” value in [4] was 4.3 fold. Also, the “current evoked by 1 mM (given instead of Imax)” value is on record as 2350 ± 200 ^a % at human α6β2 GABAAR (setting [6]) and 2420 ± 210 ^a % at human α6β2δ GABAAR (setting [6]). Also, the “fold potentiation of the GABA EC20-evoked response” value on human α6β2δ GABAAR (1 mM compound, curve not saturated) was approximately 24 fold.

In the case of `[Cl-].[Cl-].[Zn+2]` [Zn^2+, ZnCl2], the figures for the “degree of inhibition of GABA EC80-evoked currents” value on human α1β2γ2S GABAAR [5] and at human α1β2 GABAAR were 4.7 ± 4.6% and 77 ± 6.3%, respectively.

For the compound `O=C1CN=C(c2ccccc2Cl)c2cc([N+](=O)[O-])ccc2N1` [clonazepam], the EC50 was 15.5 nM on human α1β2γ2S GABAAR [1]; 90 nM with rat α3β3γ2L GABAAR; 7.4 nM on human α2β2γ2S GABAAR; 20.9 nM at human α5β2γ2S GABAAR; 16 nM on human α3β2γ2S GABAAR; 29000 nM at human α6β2δ GABAAR (EC50, PAM). Also, the 50% effective concentration (EC50) at human α6β2δ GABAAR (pEC50 ± S.E.M., PAM) was 29500 nM. For the same compound, the Imax in the series on rat α3β3γ2L GABAAR is recorded as 263%. Also, the “Imax ± S.E.M.” value is 253 ± 17% at human α2β2γ2S GABAAR; 209 ± 14% at human α1β2γ2S GABAAR [2]; 255 ± 25% at human α5β2γ2S GABAAR; 316 (334 and 297) ^b % at human α3β2γ2S GABAAR; 283 ± 38% at human α6β2δ GABAAR (% of the response evoked by GABA EC20 (EC20 response = 100%)). Moreover, the “fold more potent than N-desmethylclobazam as a PAM” value at human α2β2γ2S GABAAR (EC50 ratio) stood at 19 fold; on human α1β2γ2S GABAAR [2] (EC50 ratio) it was 10 fold; at human α5β2γ2S GABAAR (EC50 ratio), 5 fold; at human α3β2γ2S GABAAR (EC50 ratio), 18 fold. For the same compound, the “fold more potent than clobazam as a PAM” value was 19 fold at human α2β2γ2S GABAAR (EC50 ratio), 9 fold at human α1β2γ2S GABAAR [2] (EC50 ratio), 8 fold at human α5β2γ2S GABAAR (EC50 ratio) and 15 fold at human α3β2γ2S GABAAR (EC50 ratio).

Consider `Cc1ccc(-c2nc3ccc(C)cn3c2CC(=O)N(C)C)cc1` [zolpidem], for which, on human α2β2γ2S GABAAR (saturating concentration (3 μM)), the “fold potentiation of GABA EC20-evoked currents” value turned out to be 2.7 fold.

As for `CN1C(=O)CN=C(c2ccccc2)c2cc(Cl)ccc21` [diazepam], the Imax with rat α3β3γ2L GABAAR was 508%.
